Entries after “also recorded” stand apart in the source; their conditions may differ.
Tests used:
[1] = tested on: splenocytes from BALB/c mice; assay: In vitro proliferation assay of splenocytes (3H-thymidine uptake); type: cell-based, mouse; settings: for mitogenic activity of rTcPA45 in cultures supplemented with substrate: 50 μg/ml rTcPA45, increasing amounts of L- or D-proline, 3 mM to 50 mM; for cell proliferation with substrate alone: 50 mM L- or D-proline alone; for mitogenic activity of rTcPA45 pre-incubated with inhibitor: 50 μg/ml rTcPA45 pre-incubated 10 min at 37° C. with 1 mM inhibitor; for 3H-thymidine uptake: after 48 h, ConA 10 μg/ml, LPS 5 μg/ml, 5×10^4 cells/well
Description: Briefly, freshly recovered splenocytes from 8 week old male Balb/c mice seeded at a concentration of 5×10^4 cells/well were incubated for 24, 48 and 72 h in 5% FCS RPMI-1640 medium. A 16 h ^3H-thymidine pulse at 1 μCi/well was performed before harvesting. ^3H-Thymidine uptake was determined in a beta-plate liquid scintillation counter (LKB-Wallac). All points were done in triplicate and the corresponding standard deviation calculated. For comparison, ^3H-thymidine uptake after 48 h in the presence of ConA (10 μg/ml) and LPS (5 μg/ml) was 32000 c.p.m. and 3500 c.p.m., respectively. T-cell depletion was performed by incubating freshly recovered spleen cells for 30 min at 37° C. in the presence of anti-Thy 1.2 monoclonal antibody (Cedarlane) and rabbit complement (Cedarlane). In order to rule out a possible mitogenic effect due to LPS contamination in samples, proliferation assays were also performed on freshly recovered splenocytes from the LPS non-responder mouse strain C3H/Hej. Same levels of proliferation were verified. Balb/c mice were purchased from Charles River, France. C3H/Hej mice were maintained in our animal facilities.
In vitro proliferation is accomplished using freshly recovered splenocytes from BALB/c mice seeded at a density of 5×10^4 cells/well and incubated for 24, 48 and 72 h with increasing concentrations of total parasite supernatants or recombinant TcPa45 protein or other mitogen (0.07-200 μg/ml) with 0.5 μg/ml of the HPLC fractions, or with the conventionally used mitogens concanavalin A (10 μg/ml) and lipopolysaccharide (5 μg/ml) in 5% FCS in RPMI-1640 complete medium. T-cell depletion is accomplished by incubating freshly recovered spleen cells for 30 min. at 37° C. in the presence of monoclonal antibodies against Thy 1.2 and rabbit complement (Cedarlane, Le Perray en Yvelines, France). Analysis of proliferative activity of total splenocytes (5×10^4 cells/well) in the presence of 50 μg/ml enzymatically active rTcPA45 or other mitogen is also compared with the proliferation obtained using the same amounts of rTcPA45 protein or other mitogen lacking racemase activity (by heating for 10 min. at 30° C. or by long term storage at 4° C.). Inhibition of proliferation is obtained by adding to the splenocyte cultures 50 μg/ml rTcPA45 or other mitogen pre-incubated for 10 min. at 37° C. with 1 mM inhibitor, either specific (pyrrole-2-carboxylic acid) or nonspecific (iodoacetamide or iodoacetate). Competitive assays of proliferative activity by 50 μg/ml rTcPA45 or other mitogen are done by adding increasing concentrations of specific substrates i.e., proline racemase substrates (L- or D-proline) for the mitogen rTcPA45 ranging from 3 mM to 50 mM. Controls include the incubation of splenocytes (5×10^4 cells/well) with substrate alone, i.e., 50 mM L- or D-proline in RPMI medium alone for prline racemase. Cultures are collected after a 16-hour pulse or 1 μCi/well ^3H-thymidine uptake was determined in a beta-plate liquid scintillation counter (LKB-Wallac, Orsay, France). All data points are obtained in triplicate and the corresponding standard deviation is calculated.
5×10^5 naive spleen cells/well (96 well plate) were stimulated in vitro with different doses of rTcPA45 (ranging in FIG. 4b from 0.8 to 200 μg/ml final) for 24, 48 and 72 h, at 37° C., 5% CO2. Cultures were pulsed with ^3H-Thymidine (1 μCi/well) for 16-18 h before harvesting. ^3H-thymidine incorporation was obtained after counting using a beta-plate. Results present arithmetic means of c.p.m. (counts/minute) from 6 wells/dose of rTcPA45 or wells containing medium alone (+/−SD of the means).

rTcPA45 proline racemase = molecular target: T1, rTcPA45 proline racemase (Trypanosoma cruzi, UniProt Q4DA80); type: biochemical; settings: inhibitors 6 mM to 100 mM
T1 construct: 6xHis (C); made in house; host or cells: E. coli (pET28b(+))
Description: To investigate the genomic organization and transcription of the Tc45 gene, Southern and Northern blot analyses were done. FIG. 4 depicts the results of characterization of rTcPA45 activities. FIG. 4, part a, is an 8% SDS-PAGE gel of rTcPA45 (Coomasie blue staining). Part b depicts the proliferative activity of total splenocytes (5×10^4 cells/well) in the presence of increasing concentrations of rTcPA45 (μg/ml). […] Reaction conditions were: 0.2 M Na-acetate/25 mM β-mercaptoethanol buffer, pH6, rTcPA45 (3 μg/ml), 30 min incubation at 37° C. in 500 μl. The reaction was stopped by incubating for 10 min at 80° C. […] Reactions were carried out for 30 min at 37° C. and stopped for 5 min at 80° C. All reagents and inhibitors were purchased from Sigma. The shift in optical rotation was measured in a Polarimeter 241 MC (Perkin Elmer).
A suitable test for testing an active molecule inhibiting the polypeptide according to the invention is performed as follows: • The recombinant amino acid purified or native racemase is diluted in sodium acetate buffer or Tris or phophate on Hepes buffer at 3 micrograms per 500 microliters in the presence of 20 millmolar of beta mercepto ethanol and 10 to 80 millimolar of L or D substrate and containing various concentrations of active molecule to be tested. This reaction is incubated for 30 minutes at 37° C. and stopped by heating at 80° C. Variations in optical rotation are measured by a polarimeter.
3 μg of rTcPA45 was diluted in 500 μl of buffer (0.2M NaOAc, 20 mM β-mercaptoethanol, pH6.0) containing different concentrations of the substrate (10-80 mM or L- or D-proline). (See FIG. 4c.) The reaction was incubated for 30-60 minutes at 37° C. in a water bath, followed by heat inactivation of the enzyme for 10 minutes at 80° C. Each sample is diluted to 1.5 ml with water and the mixture submitted to measurement of optical rotation using a polarimeter, at 365 nm. A sample without enzyme is used as a control. […]
The percent of racemization of different concentrations of L-proline, D-proline, L-hydroxy-proline and D-hydroxy-proline substrates was calculated by incubating a 500-μl mixture of 3 μg TcPA45 and 10-80 mM substrate in 0.2 M sodium acetate and 25 mM β-mercaptoethanol, pH 6, for 30 min at 37° C. […] Water (1 ml) was then added, and the optical rotation was measured in polarimeter 241 MC (Perkin Elmer, Montignyle Bretonneux, France) at a wavelength of 365 nm, in a cell with a path length of 10 cm. […] The percent racemization of 80 mM L-proline as a function of pH was determined using 0.2 M sodium acetate, potassium phosphate and Tris-HCl buffers containing 25 mM β-mercaptoethanol; reactions were incubated for 30 min at 37° C. as described above. […]

T1 sequence (Q4DA80 30-423): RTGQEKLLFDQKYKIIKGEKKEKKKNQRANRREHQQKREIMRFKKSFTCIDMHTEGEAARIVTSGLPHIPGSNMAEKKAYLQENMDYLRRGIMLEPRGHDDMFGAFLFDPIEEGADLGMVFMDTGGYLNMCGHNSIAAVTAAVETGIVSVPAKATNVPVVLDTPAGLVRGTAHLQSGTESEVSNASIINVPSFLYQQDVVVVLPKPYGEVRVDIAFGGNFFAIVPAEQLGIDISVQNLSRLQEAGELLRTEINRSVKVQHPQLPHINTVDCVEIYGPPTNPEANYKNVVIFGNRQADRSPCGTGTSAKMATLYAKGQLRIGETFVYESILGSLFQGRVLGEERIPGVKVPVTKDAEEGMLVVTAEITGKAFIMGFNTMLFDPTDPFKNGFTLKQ

O=C(O)[C@H]1CCCN1 [D-proline]
mitogenic activity of rTcPA45 in cultures supplemented with substrate [1]: affected considerably; also recorded: decrease | cell proliferation with substrate alone [1]: no cell proliferation

O=C(O)[C@@H]1CCCN1 [L-proline]
mitogenic activity of rTcPA45 in cultures supplemented with substrate [1]: affected considerably; also recorded: decrease | cell proliferation with substrate alone [1]: no cell proliferation

NC(=O)CI [iodoacetamide]
mitogenic activity of rTcPA45 pre-incubated with inhibitor [1]: abolished | inhibition of rTcPA45 enzymatic activity (racemization of 80 mM L-proline) (rTcPA45 proline racemase): inhibited to different extents

O=C(O)CI [iodoacetate]
mitogenic activity of rTcPA45 pre-incubated with inhibitor [1]: abolished | inhibition of rTcPA45 enzymatic activity (racemization of 80 mM L-proline) (rTcPA45 proline racemase): inhibited to different extents

O=C(O)/C=C\C(=O)O [maleic acid]
inhibition of rTcPA45 enzymatic activity (racemization of 80 mM L-proline) (rTcPA45 proline racemase): inhibited to different extents

O=C(O)c1ccc[nH]1 [pyrrole-2-carboxylic acid]
mitogenic activity of rTcPA45 pre-incubated with inhibitor [1]: abolished | inhibition of rTcPA45 enzymatic activity (racemization of 80 mM L-proline) (rTcPA45 proline racemase): inhibited to different extents

concanavalin A [ConA]
3H-thymidine uptake [1]: 32000 c.p.m. | 3H-thymidine uptake ([1]; listed as concavalin A): 32,000 c.p.m.

lipopolysaccharide [LPS]
3H-thymidine uptake [1]: 3500 c.p.m. | 3H-thymidine uptake ([1]; listed as lipopolysaccharide): 3,500 c.p.m.

Source: patent publication US8168770B2, “Cloning, sequencing and expression of a gene encoding an eukaryotic amino acid racemase, and diagnostic, therapeutic, and vaccination applications of parasite and viral mitogens” (priority 1999, dated 2012)
